Assay results: US20250108023A1, “Products for Masking Bitterness” (The Third People's Hospital of Henan Province, priority 2023, published 2025)

How the values were obtained:
[1] = target: T1, TRPM5 (Mus musculus, UniProt Q9JJH7); details: TPPO 5 μM; cited from earlier work
T1 construct: host or cells: mouse taste cells
T1 sequence (Q9JJH7 1-1158): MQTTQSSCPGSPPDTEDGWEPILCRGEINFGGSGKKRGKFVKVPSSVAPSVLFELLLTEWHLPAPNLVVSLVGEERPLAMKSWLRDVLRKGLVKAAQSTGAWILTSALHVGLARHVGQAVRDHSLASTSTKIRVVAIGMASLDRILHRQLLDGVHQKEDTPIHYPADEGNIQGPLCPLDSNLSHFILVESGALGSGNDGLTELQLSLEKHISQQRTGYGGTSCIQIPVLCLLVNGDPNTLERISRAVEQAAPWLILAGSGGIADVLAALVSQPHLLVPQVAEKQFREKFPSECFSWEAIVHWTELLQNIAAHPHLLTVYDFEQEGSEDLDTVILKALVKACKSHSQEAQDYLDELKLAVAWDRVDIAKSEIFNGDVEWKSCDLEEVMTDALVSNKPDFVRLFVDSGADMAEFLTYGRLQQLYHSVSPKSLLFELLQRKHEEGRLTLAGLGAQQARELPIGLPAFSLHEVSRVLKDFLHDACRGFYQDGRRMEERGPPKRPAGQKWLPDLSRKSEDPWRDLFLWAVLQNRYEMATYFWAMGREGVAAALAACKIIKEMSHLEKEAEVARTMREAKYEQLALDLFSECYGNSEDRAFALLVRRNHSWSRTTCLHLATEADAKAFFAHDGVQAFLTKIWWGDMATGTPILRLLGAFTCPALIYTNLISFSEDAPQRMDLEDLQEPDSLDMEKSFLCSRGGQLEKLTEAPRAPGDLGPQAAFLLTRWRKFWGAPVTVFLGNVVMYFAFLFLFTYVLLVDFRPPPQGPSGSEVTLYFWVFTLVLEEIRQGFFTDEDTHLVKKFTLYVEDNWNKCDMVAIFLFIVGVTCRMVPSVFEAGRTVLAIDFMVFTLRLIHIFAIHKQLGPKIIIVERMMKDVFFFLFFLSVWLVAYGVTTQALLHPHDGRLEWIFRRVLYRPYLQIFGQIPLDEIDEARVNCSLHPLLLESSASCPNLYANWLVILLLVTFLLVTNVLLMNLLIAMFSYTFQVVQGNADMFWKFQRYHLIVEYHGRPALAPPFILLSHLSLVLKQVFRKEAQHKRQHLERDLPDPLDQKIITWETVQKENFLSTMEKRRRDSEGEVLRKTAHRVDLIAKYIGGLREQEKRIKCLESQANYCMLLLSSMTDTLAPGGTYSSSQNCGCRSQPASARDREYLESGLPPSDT

[2] = target: T2, sodium ion channel of Trpm5 bitter receptor (Mus musculus, UniProt Q9JJH7); assay: Immunofluorescence experiment of sodium ion channels in mouse tongue cells stimulated with bitter agent; format: cell-based, mice
T2 construct: Put the removed tongue in a 2 ml EP tube, add 1-1.5 ml of 0.25% trypsin solution; from tissue; host or cells: cells dissociated with trypsin from mouse tongue
T2 sequence (Q9JJH7 1-1158): T1 sequence (Q9JJH7 1-1158)
Protocol: The mouse was killed by dislocation, and the tongue was removed (minimizing tongue bleeding), disinfected with alcohol for 2 minutes (adding sodium citrate for anticoagulation), and washed with D-Hanks solution or rinsed with 10 ml of saline solution drawn by a syringe.
Take out the centrifuge tube from the constant temperature incubator, shake for 2 minutes, blow the undigested tongue several times with the gun tip, take out the tongue, cover it with the EP tube cap, put it in a centrifuge, centrifuge at 3000 rpm for 3 minutes, discard the supernatant, add cell culture medium (containing 10% inactivated serum), blow and disperse the cells, and place it in a 37° C. constant temperature incubator for 30 min to allow the cells to recover.
(1) Take out the prepared ENG-2 AM storage solution and warm it to room temperature for use, keeping it away from light. The concentration of the pre-prepared stock solution is 2 mM and it is stored at −18° C. for future use.
(2) Dilute the ENG-2 AM+DMSO stock solution to a […] working solution using serum-free culture medium.
(3) Load the probe in a serum-free culture medium containing an appropriate concentration of AM probe.
Take out the cells from the incubator, centrifuge, and discard the culture medium. Wash the cells once with D-Hanks solution, centrifuge, and discard the culture medium. Add 1 ml of culture medium again, then add 300 ul of sodium ion probe dilution solution, blow and disperse the cells, and incubate the cells at room temperature or 37° C. for 1 hour.
At the end of incubation, centrifuge at 100 rpm for 2 minutes, discard the supernatant, add 500 ul of cell culture medium without AM probe, blow and disperse the cells, and incubate for 20-60 min to ensure that the cells completely deesterify the AM group.
(4) Take 10 ul of incubation solution and drop it into the center of the cell counting plate, cover it with a slide, and observe it under a fluorescence microscope.
(5) Use a low-power microscope to find the cells, open the fluorescence path, detect the fluorescence signal with a fluorescence microscope, change to a high-power microscope, find the appropriate observation cells, observe and take pictures to record the initial signal.
(2) Experimental drugs: Add 5 ul of the tested drug to one side of the cover glass on the cell counting plate, use absorbent paper to absorb water on the opposite side, let the solution soak the cells, and then use a fluorescence microscope to observe and take 3-5 photos, one every 1-2 minutes; then add 5 ul of the standard bitter drug to one side of the cover glass on the cell counting plate, use absorbent paper to absorb water on the opposite side, let the solution soak the cells, and then use a fluorescence microscope to observe and take 3-5 photos, one every 1-2 minutes.
(5) Data analysis: Use Image J-Fiji software to analyze the images, compare the average values of the fluorescence pixels, remove the base number and compare them in the table, draw FIGS. 4-6, and use SPSS18.0 to perform chi-square tests to compare the differences between the data groups.

[3] = Bitterant 60 s (2% metronidazole solution)
[4] = Bitterant 120 s (2% metronidazole solution)
[5] = Bitterant 180 s (2% metronidazole solution)

SMILES: O=P(c1ccccc1)(c1ccccc1)c1ccccc1 [Triphenylphosphine oxide, reference compound]
- remaining taste-evoked Na^+ responses [1]: abolished
- average value of fluorescence brightness ([2]; Addition of drugs): 88.789
- average value of fluorescence brightness, base number removed ([2]; Addition of drugs): −0.243
- average value of fluorescence brightness [2, 3]: 88.608
- average value of fluorescence brightness, base number removed [2, 3]: −0.308
- average value of fluorescence brightness [2, 4]: 88.598
- average value of fluorescence brightness, base number removed [2, 4]: −1.322
- average value of fluorescence brightness [2, 5]: 88.583
- average value of fluorescence brightness, base number removed [2, 5]: −1.384
- average value of fluorescence brightness, base number removed ([2]; Initial): 0
- average value of fluorescence brightness ([2]; Initial (before addition of drug), sodium ion dye ENG-2 AM): 88.898
- blocking effect on the sodium ion channel (result analysis in words) ([2]; judged from change of sodium ion fluorescence after bitter drug): sodium ion channel is blocked
